Patent publication US8771665B2 (Cocrystal Discovery, Inc., priority 2010, dated 2014)

Columns and labels:
[1] = target: T1, HCV1b NS5B polymerase delta 21 (Hepatitis C virus genotype 1b, UniProt P26663); test: RNA-Dependent RNA HCV NS5B (Polymerase) Assay and IC50 Determination; type: biochemical
T1 construct: purified HCV1b NS5B polymerase delta 21
Procedure, shortened: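 Purified NS5B Δ21 (0.6 μg) with polyA:U16 template, 10 μM UTP plus α-32P UTP in Tris-HCl pH 7.5, 5 mM MgCl2, 0.5% Triton X-100, 60 min at 23°C with varied compound concentrations. Radiolabelled RNA captured on filters, quantified by phosphorimaging; IC50 from triplicate assays.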

HCV1b replicon = test: HCV Replicon Assay and EC50 Determination (Huh-7 cells, luciferase reporter); type: cell-based; settings: Hepatitis C virus; Huh-7 cell line with HCV1b replicon containing luciferase reporter, 72 hr, triplicate assays
Protocol: HCV Replicon Assay and EC50 Determination
The antiviral activity of compounds against hepatitis C virus was determined by a hepatitis C virus replicon reporter cell line developed by Bartenschlager (Lohmann et al., Science 1999, 285:110-113). This cell-based assay utilized a liver cell carcinoma (Huh-7) cell line stably transformed with an HCV1b replicon containing a luciferase reporter gene. Varied concentrations of compounds were added to the reporter cell line, and further incubated at 37° C. for 72 hr in DMEM supplemented with 10% FCS. The inhibitory effects of experimental compounds or the reference compound, interferon alpha (INFα), on HCV replication were measured by luciferase activity using the Britelite™ plus luminescence reporter gene kit (Perkin Elmer, Shelton, Conn.). The Britelite plus reagent was added to the 96-well plates containing the HCV reporter cells, and luminescence was measured within 15 min using a Wallac 1450 Microbeta® Trilux liquid scintillation counter. EC50 values were calculated using GraFit 6 and GraphPad Prism 5 from triplicate HCV replicon assays.

T1 sequence (P26663 2420-2989): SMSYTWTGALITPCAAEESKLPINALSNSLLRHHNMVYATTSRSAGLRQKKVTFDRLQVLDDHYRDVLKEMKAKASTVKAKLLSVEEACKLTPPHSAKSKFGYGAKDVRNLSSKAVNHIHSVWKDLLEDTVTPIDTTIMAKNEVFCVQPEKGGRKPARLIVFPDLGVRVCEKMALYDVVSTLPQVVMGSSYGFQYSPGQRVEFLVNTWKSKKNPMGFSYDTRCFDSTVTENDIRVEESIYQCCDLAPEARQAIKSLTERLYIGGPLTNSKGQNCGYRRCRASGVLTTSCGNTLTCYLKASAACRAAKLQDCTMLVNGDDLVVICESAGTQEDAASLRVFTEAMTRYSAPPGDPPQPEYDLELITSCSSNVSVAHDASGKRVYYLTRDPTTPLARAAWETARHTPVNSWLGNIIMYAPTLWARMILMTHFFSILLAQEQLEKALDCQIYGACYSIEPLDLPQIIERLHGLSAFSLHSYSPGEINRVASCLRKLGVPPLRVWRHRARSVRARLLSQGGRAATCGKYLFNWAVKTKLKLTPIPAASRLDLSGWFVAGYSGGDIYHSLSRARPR

SMILES	IC50 [1]	EC50 (HCV1b replicon)
CC1CCC(C2=C(c3cc(C#CC(C)(C)C)sc3C(=O)O)CCN(C)C2)CC1 (centres unmarked) [Example 003, 5-(3,3-Dimethyl-but-1-ynyl)-3-[1-methyl-5-(4-methyl-cyclohexyl)-1,2,3,6-tetrahydro-pyridin-4-yl]-thiophene-2-carboxylic acid]	< 3 µM	< 3 µM
CC1CCC(C2=C(c3cc(-c4ccc(NC(=O)c5cscn5)cc4)sc3C(=O)O)CCN(C)C2)CC1 (centres unmarked) [Example 013, 3-[1-Methyl-5-(4-methyl-cyclohexyl)-1,2,3,6-tetrahydro-pyridin-4-yl]-5-{4-[(thiazole-4-carbonyl)-amino]-phenyl}-thiophene-2-carboxylic acid]	< 3 µM	< 3 µM
CC1CCC(C2=C(c3cc(-c4ccccc4)sc3C(=O)O)CCN(C)C2)CC1 (centres unmarked) [Example 001, 3-[1-Methyl-5-(4-methyl-cyclohexyl)-1,2,3,6-tetrahydro-pyridin-4-yl]-5-phenyl-thiophene-2-carboxylic acid]	< 3 µM	< 3 µM
CC1CC=C(C2=C(c3cc(-c4ccccc4)sc3C(=O)O)CCN(C)C2)CC1 (centres unmarked) [Example 109, 3-[1-Methyl-5-(4-methyl-cyclohex-1-enyl)-1,2,3,6-tetrahydro-pyridin-4-yl]-5-phenyl-thiophene-2-carboxylic acid]	< 3 µM	> 10 µM
Cc1cc(C)n2nc(CN3CCC(c4cc(-c5ccc(NC(=O)c6cscn6)cc5)sc4C(=O)O)=C(C4CCC(C)CC4)C3)nc2n1 (centres unmarked) [Example 130, 3-[1-(5,7-Dimethyl-[1,2,4]triazolo[1,5-a]pyrimidin-2-ylmethyl)-5-(4-methyl-cyclohexyl)-1,2,3,6-tetrahydro-pyridin-4-yl]-5-{4-[(thiazole-4-carbonyl)-amino]-phenyl}-thiophene-2-carboxylic acid]	< 3 µM	< 3 µM
CC1CCC(C2=C(c3cc(-c4ccc(-c5cc6ncccn6n5)cc4)sc3C(=O)O)CCN(C)C2)CC1 (centres unmarked) [Example 005, 3-[1-Methyl-5-(4-methyl-cyclohexyl)-1,2,3,6-tetrahydro-pyridin-4-yl]-5-(4-pyrazolo[1,5-a]pyrimidin-2-yl-phenyl)-thiophene-2-carboxylic acid]	< 3 µM	< 3 µM
CC1CCC(C2=C(c3cc(C#Cc4ccccc4)sc3C(=O)O)CCN(C)C2)CC1 (centres unmarked) [Example 010, 3-[1-Methyl-5-(4-methyl-cyclohexyl)-1,2,3,6-tetrahydro-pyridin-4-yl]-5-phenylethynyl-thiophene-2-carboxylic acid]	> 10 µM	–
CC1CCC(C2=C(c3cc(C#CC4(C)CC4)sc3C(=O)O)CCN(C)C2)CC1 (centres unmarked) [Example 172, 5-(1-Methyl-cyclopropylethynyl)-3-[1-methyl-5-(4-methyl-cyclohexyl)-1,2,3,6-tetrahydro-pyridin-4-yl]-thiophene-2-carboxylic acid]	< 3 µM	–
CC1CCC(C2=C(c3cc(C#CC(C)(C)C)sc3C(=O)O)CNCC2)CC1 (centres unmarked) [Example 111, 5-(3,3-Dimethyl-but-1-ynyl)-3-[4-(4-methyl-cyclohexyl)-1,2,5,6-tetrahydro-pyridin-3-yl]-thiophene-2-carboxylic acid]	< 3 µM	–
Cc1cnc2cc(-c3ccc(-c4cc(C5=C(C6CCC(C)CC6)CN(C)CC5)c(C(=O)O)s4)cc3)nn2c1 (centres unmarked) [Example 163, 3-[1-Methyl-5-(4-methyl-cyclohexyl)-1,2,3,6-tetrahydro-pyridin-4-yl]-5-[4-(6-methyl-pyrazolo[1,5-a]pyrimidin-2-yl)-phenyl]-thiophene-2-carboxylic acid]	3 to 10 µM	–
CC1CCC(C2=C(c3cc(-c4ccccc4)sc3C(=O)O)CCN(C(=O)c3ccccc3)C2)CC1 (centres unmarked) [Example 072, 3-[1-Benzoyl-5-(4-methyl-cyclohexyl)-1,2,3,6-tetrahydro-pyridin-4-yl]-5-phenyl-thiophene-2-carboxylic acid]	> 10 µM	–
CC(=O)N1CCC(c2cc(-c3ccccc3)sc2C(=O)O)=C(C2CCC(C)CC2)C1 (centres unmarked) [Example 071, 3-[1-Acetyl-5-(4-methyl-cyclohexyl)-1,2,3,6-tetrahydro-pyridin-4-yl]-5-phenyl-thiophene-2-carboxylic acid]	< 3 µM	–
CC1CCC(C2=C(c3cc(-c4ccccc4)sc3C(=O)O)CCN(C(=O)OCc3ccccc3)C2)CC1 (centres unmarked) [Example 073]	> 10 µM	–
CCOC(=O)OCOC(=O)c1sc(-c2ccc(NC(=O)c3cscn3)cc2)cc1C1=C(C2CCC(C)CC2)CN(C)CC1 (centres unmarked) [Example 107, 3-[1-Methyl-5-(4-methyl-cyclohexyl)-1,2,3,6-tetrahydro-pyridin-4-yl]-5-{4-[(thiazole-4-carbonyl)-amino]-phenyl}-thiophene-2-carboxylic acid ethoxycarbonyloxymethyl ester]	< 3 µM	–
CCN1CCC(c2cc(-c3ccc(NC(=O)c4cn[nH]c4)cc3)sc2C(=O)O)=C(C2CCC(C)CC2)C1 (centres unmarked) [Example 056, 3-[1-Ethyl-5-(4-methyl-cyclohexyl)-1,2,3,6-tetrahydro-pyridin-4-yl]-5-{4-[(1H-pyrazole-4-carbonyl)-amino]-phenyl}-thiophene-2-carboxylic acid]	3 to 10 µM	–
CC1CCC(C2=C(c3cc(I)sc3C(=O)O)CNCC2)CC1 (centres unmarked) [Example 171, 5-Iodo-3-[4-(4-methyl-cyclohexyl)-1,2,5,6-tetrahydro-pyridin-3-yl]-thiophene-2-carboxylic acid]	> 10 µM	–
CCN1CCC(c2cc(-c3ccc(NC(=O)c4ccsc4)cc3)sc2C(=O)O)=C(C2CCC(C)CC2)C1 (centres unmarked) [Example 049, 3-[1-Ethyl-5-(4-methyl-cyclohexyl)-1,2,3,6-tetrahydro-pyridin-4-yl]-5-{4-[(thiophene-3-carbonyl)-amino]-phenyl}-thiophene-2-carboxylic acid]	< 3 µM	–
CC1CCC(C2=C(c3cc(-c4ccccc4)sc3C(=O)O)CCN(C(=O)c3cnccn3)C2)CC1 (centres unmarked) [Example 045, 3-[5-(4-Methyl-cyclohexyl)-1-(pyrazine-2-carbonyl)-1,2,3,6-tetrahydro-pyridin-4-yl]-5-phenyl-thiophene-2-carboxylic acid]	< 3 µM	–
CC1CCC(C2=C(c3cc(-c4ccccc4)sc3C(=O)O)CCN(Cc3nc4nc(C(C)C)cc(C(C)C)n4n3)C2)CC1 (centres unmarked) [Example 151, 3-[1-(5,7-Diisopropyl-[1,2,4]triazolo[1,5-a]pyrimidin-2-ylmethyl)-5-(4-methyl-cyclohexyl)-1,2,3,6-tetrahydro-pyridin-4-yl]-5-phenyl-thiophene-2-carboxylic acid]	3 to 10 µM	–
CC1CCC(C2=C(c3cc(-c4ccc(NC(=O)c5cscn5)cc4)sc3C(=O)O)CCNC2)CC1 (centres unmarked) [Example 159, 3-[5-(4-Methyl-cyclohexyl)-1,2,3,6-tetrahydro-pyridin-4-yl]-5-{4-[(thiazole-4-carbonyl)-amino]-phenyl}-thiophene-2-carboxylic acid]	< 3 µM	–
CCN1CCC(c2cc(-c3cccc(NC(C)=O)c3)sc2C(=O)O)=C(C2CCC(C)CC2)C1 (centres unmarked) [Example 024, 5-(3-Acetylamino-phenyl)-3-[1-ethyl-5-(4-methyl-cyclohexyl)-1,2,3,6-tetrahydro-pyridin-4-yl]-thiophene-2-carboxylic acid]	> 10 µM	–
CCCC(C)C#Cc1cc(C2=C(C3CCC(C)CC3)CCN(C)C2)c(C(=O)O)s1 (centres unmarked) [Example 177, 5-(3-Methyl-hex-1-ynyl)-3-[1-methyl-4-(4-methyl-cyclohexyl)-1,2,5,6-tetrahydro-pyridin-3-yl]-thiophene-2-carboxylic acid]	3 to 10 µM	–
CC1CCC(C2=C(c3cc(-c4ccccc4)sc3C(=O)O)CCN(S(C)(=O)=O)C2)CC1 (centres unmarked) [Example 039, 3-[1-Methanesulfonyl-5-(4-methyl-cyclohexyl)-1,2,3,6-tetrahydro-pyridin-4-yl]-5-phenyl-thiophene-2-carboxylic acid]	> 10 µM	–
CC1CCC(C2=C(c3cc(C#CC4CC4)sc3C(=O)O)CN(C)CC2)CC1 (centres unmarked) [Example 175, 5-Cyclopropylethynyl-3-[1-methyl-4-(4-methyl-cyclohexyl)-1,2,5,6-tetrahydro-pyridin-3-yl]-thiophene-2-carboxylic acid]	< 3 µM	–
CCN1CCC(c2cc(C#CCC(C)C)sc2C(=O)O)=C(C2CCC(C)CC2)C1 (centres unmarked) [Example 029, 3-[1-Ethyl-5-(4-methyl-cyclohexyl)-1,2,3,6-tetrahydro-pyridin-4-yl]-5-(4-methyl-pent-1-ynyl)-thiophene-2-carboxylic acid]	< 3 µM	–
Cc1cc(C)n2nc(CCCN3CCC(c4cc(-c5ccccc5)sc4C(=O)O)=C(C4CCC(C)CC4)C3)nc2n1 (centres unmarked) [Example 091, 3-[1-[3-(5,7-Dimethyl-[1,2,4]triazolo[1,5-a]pyrimidin-2-yl)-propyl]-5-(4-methyl-cyclohexyl)-1,2,3,6-tetrahydro-pyridin-4-yl]-5-phenyl-thiophene-2-carboxylic acid]	< 3 µM	–
